From paper PMC3078184 (Cancer research, 2011) come the findings set out here.

One assay deals with T1, ABCG2 (Homo sapiens, UniProt Q9UNQ0).
T1 sequence (Q9UNQ0 1-655): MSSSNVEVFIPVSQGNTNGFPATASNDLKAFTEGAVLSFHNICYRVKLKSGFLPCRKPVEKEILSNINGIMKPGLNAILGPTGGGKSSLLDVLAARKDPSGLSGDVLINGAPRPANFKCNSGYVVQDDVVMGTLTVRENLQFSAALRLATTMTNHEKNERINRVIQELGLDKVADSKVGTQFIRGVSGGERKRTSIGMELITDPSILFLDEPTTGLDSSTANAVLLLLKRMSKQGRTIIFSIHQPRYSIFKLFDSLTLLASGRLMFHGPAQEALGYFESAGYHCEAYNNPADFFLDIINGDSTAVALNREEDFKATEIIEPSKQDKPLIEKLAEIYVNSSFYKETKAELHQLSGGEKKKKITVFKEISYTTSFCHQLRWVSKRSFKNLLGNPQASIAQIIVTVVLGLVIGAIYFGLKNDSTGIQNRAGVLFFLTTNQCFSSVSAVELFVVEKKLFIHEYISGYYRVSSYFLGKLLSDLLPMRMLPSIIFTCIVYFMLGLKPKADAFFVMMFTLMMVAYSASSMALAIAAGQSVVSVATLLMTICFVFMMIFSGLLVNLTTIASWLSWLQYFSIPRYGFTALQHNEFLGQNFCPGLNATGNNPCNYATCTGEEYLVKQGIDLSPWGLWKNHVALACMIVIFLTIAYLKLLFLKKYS
Briefly: vanadate-sensitive ATPase stimulation in membrane vesicles. The assay is classed as biochemical.

Another assay addresses ABCB1 (Homo sapiens, UniProt P08183). The assay is described as above. The assay is classed as biochemical.

Chain of ABCB1 (P08183 whole entry): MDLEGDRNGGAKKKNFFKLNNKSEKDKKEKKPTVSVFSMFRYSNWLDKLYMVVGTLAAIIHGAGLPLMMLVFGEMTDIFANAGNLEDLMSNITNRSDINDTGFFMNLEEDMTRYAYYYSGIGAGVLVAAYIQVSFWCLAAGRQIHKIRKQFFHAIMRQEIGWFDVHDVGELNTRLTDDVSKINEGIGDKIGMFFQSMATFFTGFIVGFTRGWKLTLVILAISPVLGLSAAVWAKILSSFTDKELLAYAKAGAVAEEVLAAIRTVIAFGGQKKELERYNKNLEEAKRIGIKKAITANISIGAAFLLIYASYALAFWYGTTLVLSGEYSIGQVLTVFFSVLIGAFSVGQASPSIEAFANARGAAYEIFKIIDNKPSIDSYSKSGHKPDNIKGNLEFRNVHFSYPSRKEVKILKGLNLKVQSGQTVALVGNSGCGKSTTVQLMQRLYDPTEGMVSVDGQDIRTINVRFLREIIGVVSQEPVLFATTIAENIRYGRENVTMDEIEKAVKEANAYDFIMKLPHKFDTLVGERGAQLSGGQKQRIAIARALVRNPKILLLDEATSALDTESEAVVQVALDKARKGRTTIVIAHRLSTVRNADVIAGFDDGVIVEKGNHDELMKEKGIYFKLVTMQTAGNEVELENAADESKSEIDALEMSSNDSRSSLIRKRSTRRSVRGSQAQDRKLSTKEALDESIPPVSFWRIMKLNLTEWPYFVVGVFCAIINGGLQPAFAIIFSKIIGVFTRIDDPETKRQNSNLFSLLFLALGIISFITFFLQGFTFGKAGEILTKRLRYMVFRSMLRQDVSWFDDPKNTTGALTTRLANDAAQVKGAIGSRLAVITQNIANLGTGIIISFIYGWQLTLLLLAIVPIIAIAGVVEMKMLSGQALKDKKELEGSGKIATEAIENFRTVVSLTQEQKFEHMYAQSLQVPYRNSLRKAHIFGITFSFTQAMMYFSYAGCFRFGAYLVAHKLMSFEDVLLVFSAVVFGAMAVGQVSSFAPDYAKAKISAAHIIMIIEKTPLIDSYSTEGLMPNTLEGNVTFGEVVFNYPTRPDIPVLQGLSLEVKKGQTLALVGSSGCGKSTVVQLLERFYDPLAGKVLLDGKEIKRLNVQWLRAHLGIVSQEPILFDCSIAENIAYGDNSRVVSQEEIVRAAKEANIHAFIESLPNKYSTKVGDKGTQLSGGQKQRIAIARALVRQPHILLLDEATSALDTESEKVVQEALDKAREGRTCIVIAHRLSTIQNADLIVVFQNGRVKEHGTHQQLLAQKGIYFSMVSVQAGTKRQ

On to `CCCc1nn(C)c2c(=O)[nH]c(-c3cc(S(=O)(=O)N4CCN(C)CC4)ccc3OCC)nc12` [Sildenafil], for which the figures for the EC50 at ABCG2 and on ABCB1 were 250 to 500 nM and 5000 to 10000 nM, respectively.
